Experimental data reported in PubChem BioAssay (NCI).
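Cells were grown in 96-well plates and exposed to each compound for 48 hours at five concentrations; endpoints were interpolated linearly between bracketing concentrations, or set to the highest concentration if not reached. GI50 = concentration required for 50% inhibition of growth. At the TGI there is no net growth.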 *1 amine or outer side, *2 acyl side, *3 side chain or, on linkers, in order; H or OH if unused. Where a SMILES comes first, the peptide text is derived from it. Bridges are numbered along the chain shown (N, C = ends). Roman numbers before positions name the chains, in order. X23 = CCCCCCCCCCCCCCC(=O)NC(CCCCN[*:2])C(=O)CN1CCCC1C(=O)[*:1]

Assays:
Assay in all cases: NCI-60 cell line screen, 48 h
NCI-H460 lung = tested on: NCI-H460 lung
HS 578T breast = tested on: HS 578T breast
UO-31 renal = tested on: UO-31 renal
A549 NSCLC = tested on: A549 NSCLC
CAKI-1 renal = tested on: CAKI-1 renal
OVCAR-3 ovarian = tested on: OVCAR-3 ovarian
EKVX NSCLC = tested on: EKVX NSCLC
ACHN renal = tested on: ACHN renal
MOLT-4 leukemia = tested on: MOLT-4 leukemia
K-562 leukemia = tested on: K-562 leukemia

Structure (SMILES) | TGI (NCI-H460 lung) | TGI (HS 578T breast) | TGI (UO-31 renal) | TGI (A549 NSCLC) | TGI (CAKI-1 renal) | TGI (OVCAR-3 ovarian) | TGI (EKVX NSCLC) | TGI (ACHN renal) | TGI (MOLT-4 leukemia) | TGI (K-562 leukemia) | GI50 (NCI-H460 lung) | GI50 (HS 578T breast) | GI50 (UO-31 renal) | GI50 (A549 NSCLC) | GI50 (CAKI-1 renal) | GI50 (MOLT-4 leukemia) | GI50 (K-562 leukemia) | GI50 (OVCAR-3 ovarian) | GI50 (EKVX NSCLC)
C[As](C)SCC(NC(=O)CCC(N)C(=O)O)C(=O)NCC(=O)O.Cl.c1ccncc1 (centres undefined) | 8.9 µM | 4.6 µM | 1.31 µM | 5.64 µM | 0.652 µM | 0.412 µM | 3.08 µM | 1.1 µM | – | – | – | – | – | – | – | – | – | – | –
OCCSCc1cc(Cl)cc(Cl)c1O | > 100 µM | > 100 µM | > 100 µM | > 100 µM | > 100 µM | > 100 µM | > 100 µM | > 100 µM | > 100 µM | > 100 µM | – | – | – | – | – | – | – | – | –
O=C1CC(NC2CC(=O)c3c(Br)sc(Br)c32)c2c(Br)sc(Br)c21 (centres undefined) | 38.2 µM | 33.2 µM | 4.46 µM | 38.9 µM | 9.72 µM | > 100 µM | 22.7 µM | 5.22 µM | > 100 µM | > 21.5 µM | – | – | – | – | – | – | – | – | –
CCCCCCCCCCCCCCC(=O)NC(CCCCNC(=O)C1CCCN1C(=O)C(CCCCN)NC(=O)C(CCCCN)NC(=O)C(CCCCN)NC(=O)C(CCCNC(=N)N)NC(=O)C(CCCCN)NC(=O)C(N)C(C)C)C(=O)CN1CCCC1C(=O)NCC(=O)NC(Cc1ccccc1)C(=O)N1CCCC1C(=O)NC(CO)C(=O)NC(Cc1ccc(O)cc1)C(=O)NC(CCCCN)C(=O)NC(CC(C)C)C(=O)NC(CCCNC(=N)N)C(=O)N1CCCC1C(=O)NCC(N)=O (centres undefined) (I: GFPSYKLRPG-NH2 / II: H-VKRKKKP; linker I:N-II:C via X23; configuration not given here) | 49.9 µM | > 100 µM | 77.1 µM | 43.1 µM | 36.9 µM | 94.6 µM | 58.7 µM | – | 44 µM | 44.4 µM | 14.6 µM | 41.1 µM | 24.7 µM | 19.2 µM | 14 µM | 18.7 µM | 9.27 µM | 18.7 µM | 20.3 µM
CC(C)(C)OC(=O)N1CCCC1C(=O)NCCNc1ccc(NCCNC(=O)C2CCCN2C(=O)OC(C)(C)C)c2c1C(=O)c1ccccc1C2=O (centres undefined) | – | 69.5 µM | – | 33.9 µM | 36.9 µM | 27.1 µM | > 100 µM | 31.6 µM | > 100 µM | > 100 µM | – | – | – | – | – | – | – | – | –
O=C1CSc2sc(=S)sc2S1 | > 100 µM | – | > 100 µM | > 100 µM | – | > 100 µM | > 100 µM | – | > 100 µM | > 100 µM | – | – | – | – | – | – | – | – | –
COC1=CCC2=C(CCN(C(=O)C3CC3)C2Cc2ccc(OC)c(O)c2)C1 (centres undefined) | > 100 µM | > 100 µM | > 100 µM | > 100 µM | > 100 µM | > 100 µM | > 100 µM | > 100 µM | > 100 µM | > 100 µM | – | – | – | – | – | – | – | – | –
O=C(Nc1sccc1S(=O)(=O)c1ccc(Cl)cc1)c1ccc(Cl)cc1Cl | > 100 µM | > 100 µM | > 100 µM | > 100 µM | > 100 µM | > 100 µM | > 100 µM | > 100 µM | > 100 µM | > 100 µM | – | – | – | – | – | – | – | – | –
CCSC1=C(C#N)C2(CCCCC2)C2=C(CC(C)(C)CC2=O)N1 | 21.2 µM | > 100 µM | 39.8 µM | > 100 µM | > 100 µM | – | 68.4 µM | 74.2 µM | > 100 µM | > 100 µM | – | – | – | – | – | – | – | – | –
Cc1cc(O)c2cc3c(O)c(O)ccc3cc2c1 | 3.63 µM | 6.22 µM | 2.22 µM | > 26.3 µM | 6.63 µM | 6.04 µM | 24.7 µM | 5.71 µM | 5.75 µM | 3.33 µM | – | – | – | – | – | – | – | – | –
O=CNNC(=O)CSc1nc2ccc(I)cc2c(=O)n1Cc1ccccc1 | 50.9 µM | 87.8 µM | 3.93 µM | > 100 µM | 57.5 µM | 50.2 µM | 69.7 µM | > 100 µM | > 100 µM | > 100 µM | – | – | – | – | – | – | – | – | –
O=S(=O)(c1ccccc1)[C@@H]1[C@H]2C=C[C@](CS)(O2)[C@H]1S(=O)(=O)c1ccccc1 | > 100 µM | > 100 µM | > 100 µM | > 100 µM | 92.3 µM | 63.5 µM | > 100 µM | > 100 µM | 43.6 µM | 36.9 µM | – | – | – | – | – | – | – | – | –
NS(=O)(=O)c1ccc(N=Nc2ccc(O)c(O)c2)cc1 | 58.9 µM | 67.3 µM | 26.4 µM | 48.7 µM | > 100 µM | > 100 µM | > 100 µM | 17 µM | > 100 µM | > 100 µM | – | – | – | – | – | – | – | – | –
CC(=O)OCC1OC(N2C(=O)CC(N)=Nc3ccccc32)C(OC(C)=O)C(OC(C)=O)C1OC(C)=O (centres undefined) | > 100 µM | > 100 µM | > 100 µM | > 100 µM | > 100 µM | > 100 µM | > 100 µM | > 100 µM | 57.3 µM | > 100 µM | – | – | – | – | – | – | – | – | –
Clc1ccc(/C=C/c2nc(-c3ccc(Cl)cc3)cn3c2nc2ccccc23)cc1 | > 100 µM | > 100 µM | > 100 µM | > 100 µM | – | > 100 µM | > 100 µM | > 100 µM | > 100 µM | > 100 µM | – | – | – | – | – | – | – | – | –
